According to patent US20250108038A1 (priority 2023, published 2025):
Values joined by “and” are separate entries in the source; they are usually repeats but may differ in a detail not shown here. Identical values can stand only once.

Tested on: Long Evans rats
Test: Behavioral satiety sequence (BSS)
Assay type: in vivo, Long Evans rat
From the text: The Behavioural Satiety Sequence (BSS) is a technique used to evaluate physiological satiety. It is based on the expression of a sequence of behaviors including eating, grooming, locomotor activity, followed by resting, which are typically observed in rodents post-ingestion (Halford et al, 1998, Pharmacology Biochemistry and Behaviour. 61(2): 159-168). The BSS is a widely used model for determining the effects of novel pharmaceuticals on food intake and measures of satiety in rodents (Oliveira et al, 2011, Revista de Nutrição. 24(4) 619-628), and to discriminate the cause of reduced food intake following pharmacological manipulation. For example, treatments that may reduce food intake by non-specific mechanisms, such as immobility, malaise, and taste adulteration, will disrupt this sequence (Halford et al, 1998, Pharmacology Biochemistry and Behaviour. 61(2): 159-168).
Specifically, 12 male Long-Evans rats were food-deprived for 22 h with a 2 h feeding period each day. Rats were trained to consume daily food during the 2 h period over 25 days. The testing phase was initiated once the rats consistently consumed 16-18 g of food per day with ≤10% variance in amount of feed consumed. Feeding took place in designated individual boxes in a quiet room separate from the housing room. Continuous remote monitoring via video camera during feeding was used to assess the BSS. Food consumption was measured by weighing the total available food before and after the 2 h feeding window, correcting for spillage. Lorcaserin (1 mg/kg) was included as a reference control (Higgins et al, 2011, Neuropsychopharmacology. 37(5): 1177-1191). Subjects were tested using a repeated-measures, Latin square design with 2-3 days wash-out between treatment cycles.
On scheduled test days, animals were monitored remotely via video camera during the feeding access period. The occurrence of four mutually exclusive behaviors (eating/drinking, grooming, active, rest) were individually scored. Over the 2 h feeding period, behaviors were assessed every 30 seconds. Scores were compiled into 23 5 min timebins (timebin 24 was removed due to early removal of animals) and the frequency of each behavior within each timebin was calculated to determine a temporal frequency of each measure (Rodgers et al, 2010, Pharmacology Biochemistry and Behaviour. 97: 3-14). Percentage time was plotted for each behavioral sequence in each timebin to compare between treatment groups (Higgins et al, 2011, Neuropsychopharmacology. 37(5): 1177-1191).

[1] = Compound I-19 1 mg/kg, AVG of 12 animals
[2] = Compound I-19 1 mg/kg, raw score of individual animals LT-1 to LT-12
[3] = Compound I-19 3 mg/kg i.p., AVG of the group
[4] = Compound I-19 3 mg/kg i.p., raw score per animal

Clc1ccc(C2(OCC3OCCO3)c3ccccc3C3=NCCN32)cc1 (stereo not drawn) [Compound I-19]
BSS scoring R (resting), Time Bin 13 (60-65 TOTAL), AVG [1]: 0.13 | BSS scoring R (resting), Time Bin 14 (65-70 TOTAL), AVG [1]: 0.10 | BSS scoring R (resting), Time Bin 15 (70-75 TOTAL), AVG [1]: 0.13 | BSS scoring R (resting), Time Bin 16 (75-80 TOTAL), AVG [1]: 0.18 | BSS scoring R (resting), Time Bin 17 (80-85 TOTAL), AVG [1]: 0.14 | BSS scoring R (resting), Time Bin 18 (85-90 TOTAL), AVG [1]: 0.30 | BSS scoring A (active), Time Bin 13 (60-65 TOTAL) [2]: 2 and 1 (3×) and 0 (6×) and 3 (2×) | BSS scoring A (active), Time Bin 14 (65-70 TOTAL) [2]: 0 (4×) and 1 (4×) and 2 and 3 (2×) and 4 | BSS scoring A (active), Time Bin 15 (70-75 TOTAL) [2]: 0 (4×) and 2 (4×) and 1 (2×) and 5 (2×) | BSS scoring A (active), Time Bin 16 (75-80 TOTAL) [2]: 1 (3×) and 2 and 0 (5×) and 4 (2×) and 6 | BSS scoring A (active), Time Bin 17 (80-85 TOTAL) [2]: 9 and 0 (5×) and 4 and 2 and 3 and 1 (3×) | BSS scoring A (active), Time Bin 18 (85-90 TOTAL) [2]: 1 (3×) and 0 (5×) and 4 and 3 and 2 (2×) | BSS scoring E (eating/drinking), Time Bin 13 (60-65 TOTAL) [2]: 8 (2×) and 6 (3×) and 10 (3×) and 0 and 9 (2×) and 5 | BSS scoring E (eating/drinking), Time Bin 14 (65-70 TOTAL) [2]: 10 (3×) and 8 (2×) and 9 and 1 and 7 (3×) and 5 and 6 | BSS scoring E (eating/drinking), Time Bin 15 (70-75 TOTAL) [2]: 10 (2×) and 8 (3×) and 7 (2×) and 6 and 3 (2×) and 4 (2×) | BSS scoring E (eating/drinking), Time Bin 16 (75-80 TOTAL) [2]: 7 (3×) and 9 (2×) and 10 (2×) and 0 and 1 and 8 and 6 and 3 | BSS scoring E (eating/drinking), Time Bin 17 (80-85 TOTAL) [2]: 1 (2×) and 10 (3×) and 6 and 8 (2×) and 0 and 9 (3×) | BSS scoring E (eating/drinking), Time Bin 18 (85-90 TOTAL) [2]: 9 (2×) and 6 and 7 (3×) and 1 (2×) and 0 (2×) and 8 and 10 | BSS scoring G (grooming), Time Bin 13 (60-65 TOTAL) [2]: 0 (7×) and 2 (2×) and 1 (3×) | BSS scoring G (grooming), Time Bin 14 (65-70 TOTAL) [2]: 0 (8×) and 1 (4×) | BSS scoring G (grooming), Time Bin 15 (70-75 TOTAL) [2]: 0 (9×) and 1 and 3 and 2 | BSS scoring G (grooming), Time Bin 16 (75-80 TOTAL) [2]: 2 and 1 and 0 (10×) | BSS scoring G (grooming), Time Bin 17 (80-85 TOTAL) [2]: 0 (11×) and 1 | BSS scoring G (grooming), Time Bin 18 (85-90 TOTAL) [2]: 0 (8×) and 1 (4×) | BSS scoring R (resting), Time Bin 13 (60-65 TOTAL) [2]: 0 (7×) and 1 (3×) and 10 and 2 | BSS scoring R (resting), Time Bin 14 (65-70 TOTAL) [2]: 0 (8×) and 8 and 2 and 1 (2×) | BSS scoring R (resting), Time Bin 15 (70-75 TOTAL) [2]: 0 (5×) and 2 (2×) and 1 (3×) and 4 and 5 | BSS scoring R (resting), Time Bin 16 (75-80 TOTAL) [2]: 0 (6×) and 2 (2×) and 10 and 5 and 1 (2×) | BSS scoring R (resting), Time Bin 17 (80-85 TOTAL) [2]: 0 (9×) and 2 and 5 and 10 | BSS scoring R (resting), Time Bin 18 (85-90 TOTAL) [2]: 0 (5×) and 1 (2×) and 2 and 7 (2×) and 8 and 10 | BSS scoring A (active), Time Bin 1 (0-5 TOTAL), AVG [3]: 0.11 | BSS scoring A (active), Time Bin 2 (5-10 TOTAL), AVG [3]: 0.02 | BSS scoring A (active), Time Bin 3 (10-15 TOTAL), AVG [3]: 0.11 | BSS scoring A (active), Time Bin 4 (15-20 TOTAL), AVG [3]: 0.13 | BSS scoring A (active), Time Bin 5 (20-25 TOTAL), AVG [3]: 0.06 | BSS scoring A (active), Time Bin 6 (25-30 TOTAL), AVG [3]: 0.11 | BSS scoring E (eating/drinking), Time Bin 1 (0-5 TOTAL), AVG [3]: 0.86 | BSS scoring E (eating/drinking), Time Bin 2 (5-10 TOTAL), AVG [3]: 0.93 | BSS scoring E (eating/drinking), Time Bin 3 (10-15 TOTAL), AVG [3]: 0.87 | BSS scoring E (eating/drinking), Time Bin 4 (15-20 TOTAL), AVG [3]: 0.83 | BSS scoring E (eating/drinking), Time Bin 5 (20-25 TOTAL), AVG [3]: 0.88 | BSS scoring E (eating/drinking), Time Bin 6 (25-30 TOTAL), AVG [3]: 0.84 | BSS scoring G (grooming), Time Bin 1 (0-5 TOTAL), AVG [3]: 0.03 | BSS scoring G (grooming), Time Bin 2 (5-10 TOTAL), AVG [3]: 0.03 | BSS scoring G (grooming), Time Bin 3 (10-15 TOTAL), AVG [3]: 0.01 | BSS scoring G (grooming), Time Bin 4 (15-20 TOTAL), AVG [3]: 0.02 | BSS scoring G (grooming), Time Bin 5 (20-25 TOTAL), AVG [3]: 0.05 | BSS scoring G (grooming), Time Bin 6 (25-30 TOTAL), AVG [3]: 0.01 | BSS scoring R (resting), Time Bin 1 (0-5 TOTAL), AVG [3]: 0.00 | BSS scoring R (resting), Time Bin 2 (5-10 TOTAL), AVG [3]: 0.02 | BSS scoring R (resting), Time Bin 3 (10-15 TOTAL), AVG [3]: 0.02 | BSS scoring R (resting), Time Bin 4 (15-20 TOTAL), AVG [3]: 0.02 | BSS scoring R (resting), Time Bin 5 (20-25 TOTAL), AVG [3]: 0.02 | BSS scoring R (resting), Time Bin 6 (25-30 TOTAL), AVG [3]: 0.04 | BSS scoring A (active), Time Bin 1 (0-5 TOTAL) [4]: 2 and 1 (8×) and 3 and 0 (2×) | BSS scoring A (active), Time Bin 2 (5-10 TOTAL) [4]: 1 (2×) and 0 (10×) | BSS scoring A (active), Time Bin 3 (10-15 TOTAL) [4]: 2 (4×) and 1 (2×) and 0 (5×) and 3 | BSS scoring A (active), Time Bin 4 (15-20 TOTAL) [4]: 0 (6×) and 3 (2×) and 2 and 6 and 1 (2×) | BSS scoring A (active), Time Bin 5 (20-25 TOTAL) [4]: 1 (7×) and 0 (5×) | BSS scoring A (active), Time Bin 6 (25-30 TOTAL) [4]: 2 (2×) and 1 (5×) and 0 (4×) and 4 | BSS scoring E (eating/drinking), Time Bin 1 (0-5 TOTAL) [4]: 8 (4×) and 9 (6×) and 7 and 10 | BSS scoring E (eating/drinking), Time Bin 2 (5-10 TOTAL) [4]: 8 (3×) and 10 (7×) and 9 (2×) | BSS scoring E (eating/drinking), Time Bin 3 (10-15 TOTAL) [4]: 8 (4×) and 9 (2×) and 10 (4×) and 7 (2×) | BSS scoring E (eating/drinking), Time Bin 4 (15-20 TOTAL) [4]: 9 (2×) and 7 (2×) and 10 (4×) and 8 (3×) and 4 | BSS scoring E (eating/drinking), Time Bin 5 (20-25 TOTAL) [4]: 9 (4×) and 10 (3×) and 8 (4×) and 7 | BSS scoring E (eating/drinking), Time Bin 6 (25-30 TOTAL) [4]: 8 (2×) and 9 (3×) and 10 (4×) and 5 and 7 and 6 | BSS scoring G (grooming), Time Bin 1 (0-5 TOTAL) [4]: 0 (9×) and 1 (2×) and 2 | BSS scoring G (grooming), Time Bin 2 (5-10 TOTAL) [4]: 1 (2×) and 0 (9×) and 2 | BSS scoring G (grooming), Time Bin 3 (10-15 TOTAL) [4]: 0 (11×) and 1 | BSS scoring G (grooming), Time Bin 4 (15-20 TOTAL) [4]: 0 (10×) and 1 (2×) | BSS scoring G (grooming), Time Bin 5 (20-25 TOTAL) [4]: 0 (6×) and 1 (6×) | BSS scoring G (grooming), Time Bin 6 (25-30 TOTAL) [4]: 0 (11×) and 1 | BSS scoring R (resting), Time Bin 1 (0-5 TOTAL) [4]: 0 | BSS scoring R (resting), Time Bin 2 (5-10 TOTAL) [4]: 0 (10×) and 1 (2×) | BSS scoring R (resting), Time Bin 3 (10-15 TOTAL) [4]: 0 (11×) and 2
